Results published in patent publication US8981179B2, “Transgenic non-human animal and uses thereof” (Sanofi, priority 2009, dated 2015).

Key:
[1] = tested on: cAMP pathway (CreLuc luciferase reporter) in brain slices; assay: Whole brain slice luminescence, cAMP pathway activators; assay type: cell-based, mouse; details: line 187, 1 uM isoproterenol, 2 days
Experimental: In general, brains from CreLuc mice can be harvested and then either cut into slices on a microtome or various subregions can also be dissected out and then sliced on a microtome. The slices can then be incubated with different compounds such as forskolin and rolipram, or GPCR specific compounds. Luciferase levels can then be measured with an IVIS bioimager or a photomultiplier with a carousel to take quantitative timecourse measurements.
Thus, isoproterenol was used to increase the luciferase signal window which allows for screening GPCR specific compounds such as Gi agonists.
Compound activity can also be quantitated over time in a viable brain slice and luciferase expression can be visualized by a bioimager. […] Forskolin is a general activator of cAMP.

[2] = tested on: ADβR; assay: Cardiomyocytes CreLuc luciferase assay, ADβR agonist; assay type: cell-based, mouse; details: cardiomyocytes line 229, 10 μM isoproterenol
Experimental: The effects of forskolin and rolipram and isoproterenol on luciferase levels in cardiomyocytes was studied (FIG. 35). Cardiomyocytes were isolated from P3 pups from line 229. The cells were cultured in a 96 well plate. Compounds tested include 10 μM forskolin, 5 μM rolipram and 10 μM isoproterenol (ADβR agonist).

[3] = tested on: ADβR; assay: Mouse embryonic fibroblasts CreLuc luciferase assay, ADβR agonist; assay type: cell-based; details: six independent CreLuc lines, 10 μM isoproterenol
Experimental: The effects of forskolin, rolipram and isoproterenol on luciferase expression in mouse embryonic fibroblasts was investigated (FIG. 33). Mouse embryonic fibroblasts were cultured from E12 embryos from six independent CreLuc lines. Cells were plated at 20,000 cells per well. Compounds tested include 10 μM forskolin, 5 μM rolipram and 10 μM isoproterenol (ADβR agonist).

[4] = tested on: β-adrenergic receptor (ADβR); assay: Whole splenocytes CreLuc luciferase assay, ADβR agonist; assay type: cell-based, mouse; details: line 64 whole splenocytes, 10 uM, 4 hours
Experimental: Whole splenocyte preps isolated from CreLuc mice (line 64) were used to show the effects of general cAMP inducers such as forskolin and rolipram, as well as Gs agonists on luciferase expression (FIG. 16). […] The cell suspension was then passed through a 70 um strainer into a 50 ml conical tube. […] Cells were diluted to 2×10^6/ml, and 100 ul of the cells were plated per well in a 96 well white opaque plate. […] At 24 hours, compounds were added to the plates for an additional 4 hours. The general inducers include rolipram (Sigma R6520), forskolin (Sigma F6886). […] The assay was run in triplicate. After 4 hours, 100 μl of BrightGlo (Promega, Madison, Wis., cat#E2610) and the assay was read on a TopCount luminometer. […] The preparation used in the experiment was a whole splenocyte preparation which is a mixed population of cells.

[5] = tested on: β adrenergic receptors (ADβR); assay: Primary cortical neurons CreLuc luciferase assay, Gs modulation via ADβR; assay type: cell-based, mouse; details: cortical neurons line 187, day 3, 10 μM, 4 hours
From the text: A general schematic of the workflow for the isolation and compound treatment of primary neuronal cells from the CreLuc model is depicted in FIG. 9. Cortices or other brain subregions are removed from embryos, usually embryonic (E) day 17 or 18, but also as early as E14. The individual neurons are then isolated and plated onto 96 well assay plates. Assays are run either in triplicate or quadruplicate. The assays are run from day 3 in culture up until day 7 or day 10 in culture depending on the expression levels of the target GPCR. Compounds are added to the plates then at a set timepoint, Bright Glo (Promega, Cat #E2610) is added to the plates and the assay is then run on a TopCount or other luminometer.
Primary cell cultures from the CreLuc mice may be used to screen compounds that are capable of modulating Gs coupled receptors. Neurons were isolated from the cortices of line 187 E18 embryos. […] The assay was run in triplicates on day three in culture. Forskolin was used at 5 μM, rolipram at 10 μM and the Gs agonists, ADβR-isoproterenol; and Dopamine-SKF82958 (MFG, Cat #C130) at 10 μM. At 4 hours, Bright Glo was added and the assays run on a Topcount. Forskolin is a general activator of cAMP. […] Forskoline and rolipram act synergistically to increase luciferase expression. […]

[6] = tested on: ADRβ; assay: Primary striatal neurons CreLuc luciferase assay, ADβR agonist; assay type: cell-based, mouse; details: striatal neurons line 187, day 4, 10 μM, 3 μM and 1 μM, 5 hours
From the text: Any cell culture derived from the CreLuc mice may be used to screen compounds for the ability to modulate GPCRs. Luciferase expression was induced in CreLuc striatal neurons by forskolin and rolipram, and Gs agonists for DRD1 and ADβR (FIG. 16). Striatum neurons were isolated from E14 embryos. The assays were run at day 4 in culture. […]. Thus, the transgene is functional in striatal as well cortical neurons (see FIG. 10).

[7] = tested on: CRE Luc reporter; assay: In vivo bioluminescence imaging of CreLuc transgenic mouse after isoproterenol; details: bioimaging
Experimental: Administration of isoproterenol (right panel) increases spinal cord expression of the CRE Luc reporter compared to basal levels (left panel). The bioluminescent detection is represented visually on a white-light image of the animal as a pseudocolor representation in grayscale. […] For in vivo assays, the animals are dosed with luciferin only and then bioimaged on an IVIS bioimager to get baseline signal. The animals are then dosed with compound, and then bioimaged again at a set timepoint to examine the effects of the compound on the luciferase signal. Data can be analyzed as the fold induction of the induced signal versus the baseline signal. For the ex vivo assays, mice are dosed with either compound or vehicle, and then at a set timepoint, tissues are harvested and frozen. The tissues can then be homogenized and a luciferase assay such as Promega Luciferase assay system (Promega cat #E1500) run on the tissue extracts and the assay read on a luminometer such as the Topcount. Data can be analyzed as the relative light units per μg protein, comparing vehicle versus compound groups.

[8] = tested on: ADβR; assay: Isolated CD4+ T cells CreLuc luciferase assay, ADβR agonist; assay type: cell-based, mouse; details: line 64 CD4+ T cells, anti CD3 24 hours, 10 μM, 4 hours
Experimental: The effects of different Gs agonists on luciferase levels in anti CD3 stimulated CD4+ T cells isolated from CreLuc mice was studied (FIG. 19). Whole splenocyte populations were prepared by mechanical disruption. CD4+ cells were then isolated by MACS Magnetic Separation with Positive Selection (Miltenyi Biotec cat#130-049-201). The cells, 1.5×10^5 per well, were then plated on 96 well white opaque plates and then stimulated with anti CD3 antibodies (BD Pharmingen cat#553058). After 24 hours, compounds were added for an additional 4 hours. Gs agonists for DP (B[…]), EP2 (EX00000173A) and ADβR (isoproterenol) were all used at 10 μM. Forskolin 5 μM, and rolipram 10 μM. BrightGlo (Promega, Madison, Wis., cat#E2610) was added and the assay was read on the TopCount. A 25-fold increase is observed in cells treated with forskolin and rolipram. […] The transgene was responsive to specific Gs agonists as well as general modulators of the cAMP pathway.

## CC(C)NCC(O)c1ccc(O)c(O)c1 (centres unmarked) [isoproterenol]
[1]
  luciferase expression in hippocampal brain slices: induces luciferase expression levels
[2]
  increase in luciferase levels: 2 fold
[3]
  luciferase expression in mouse embryonic fibroblasts: Significant increases were also observed in three of the lines
[4]
  luciferase versus DMSO only control (t-test): Statistically significant increases
[5]
  increased luci levels vs DMSO control: 11 fold
[6]
  luciferase expression: Significant increases
[7]
  spinal cord expression of the CRE Luc reporter compared to basal levels: increases
[8]
  increase of luciferase: 5 fold
